# Source: patent US7833967B2, “Synthetic antimicrobial polypeptides” (priority 2003, dated 2010)
# Tested on: E. coli TOP10
# Assay: Suicide expression system (SES) growth inhibition
# Assay type: cell-based
# Settings: Table 5; mixed-motif library, re-tested in the Bioscreen C
row,Substance,Growth inhibition (%)
1,244 (RRRPPRLPRPFPVRPPPRLPRPVPFRP; Synthetic antimicrobial peptide) [compound 244],90
2,245 (RRRPPRLPRPFPVRPPPRVPRPFPVRP; Synthetic antimicrobial peptide) [compound 245],95
3,246 (RRRPPRLPRPFPVRPPPRVPRPFPVRP; Synthetic antimicrobial peptide) [compound 246],95
4,247 (RRRPPRLPRPFPVRPPPRVPRPLPFRP; Synthetic antimicrobial peptide) [compound 247],93
5,248 (RRRPPRLPRPFPVRPPPRVPRPVPIRP; Synthetic antimicrobial peptide) [compound 248],94
6,249 (RRRPPRLPRPFPVRPPPRVPRPVPIRP; Synthetic antimicrobial peptide) [compound 249],93
7,250 (RRRPPRLPRPIPFRPPPRIPRPIPVRP; Synthetic antimicrobial peptide) [compound 250],96
8,251 (RRRPPRLPRPIPFRPPPRIPRPLPFRP; Synthetic antimicrobial peptide) [compound 251],96
9,252 (RRRPPRLPRPIPFRPPPRIPRPVPVRP; Synthetic antimicrobial peptide) [compound 252],92
10,253 (RRRPPRLPRPIPFRPPPRLPRPIPIRP; Synthetic antimicrobial peptide) [compound 253],91
11,254 (RRRPPRLPRPIPFRPPPRVPRPFPIRP; Synthetic antimicrobial peptide) [compound 254],77
12,255 (RRRPPRLPRPIPIRPPPRFPRPVPFRP; Synthetic antimicrobial peptide) [compound 255],93
13,256 (RRRPPRLPRPIPLRPPPRVPRPIPIRP; Synthetic antimicrobial peptide) [compound 256],91
14,257 (RRRPPRLPRPIPVRPPPRFPRPIPFRP; Synthetic antimicrobial peptide) [compound 257],92
15,258 (RRRPPRLPRPIPVRPPPRFPRPIPFRP; Synthetic antimicrobial peptide) [compound 258],92
16,259 (RRRPPRLPRPIPVRPPPRFPRPIPVRP; Synthetic antimicrobial peptide) [compound 259],98
17,260 (RRRPPRLPRPIPVRPPPRIPRPIPVRP; Synthetic antimicrobial peptide) [compound 260],90
18,261 (RRRPPRLPRPIPVRPPPRIPRPVPFRP; Synthetic antimicrobial peptide) [compound 261],92
19,262 (RRRPPRLPRPIPVRPPPRLPRPVPLRP; Synthetic antimicrobial peptide) [compound 262],93
20,263 (RRRPPRLPRPIPVRPPPRVPRPIPLRP; Synthetic antimicrobial peptide) [compound 263],94
21,264 (RRRPPRLPRPLPFRPPPRFPRPVPVRP; Synthetic antimicrobial peptide) [compound 264],92
22,265 (RRRPPRLPRPLPFRPPPRLPRPFPVRP; Synthetic antimicrobial peptide) [compound 265],94

row,Substance,Growth inhibition (%)
1,266 (RRRPPRLPRPLPFRPPPRLPRPVPVRP; Synthetic antimicrobial peptide) [compound 266],94
2,267 (RRRPPRLPRPLPFRPPPRVPRPFPIRP; Synthetic antimicrobial peptide) [compound 267],94
3,268 (RRRPPRLPRPLPFRPPPRVPRPVPLRP; Synthetic antimicrobial peptide) [compound 268],93
4,269 (RRRPPRLPRPLPFRPPPRVPRPVPVRP; Synthetic antimicrobial peptide) [compound 269],90
5,270 (RRRPPRLPRPLPFRPPPRVPRPVPVRP; Synthetic antimicrobial peptide) [compound 270],90
6,271 (RRRPPRLPRPLPFRPPPRVPRPVPVRP; Synthetic antimicrobial peptide) [compound 271],97
7,272 (RRRPPRLPRPLPIRPPPRFPRPIPVRP; Synthetic antimicrobial peptide) [compound 272],91
8,273 (RRRPPRLPRPLPIRPPPRFPRPVPLRP; Synthetic antimicrobial peptide) [compound 273],92
9,274 (RRRPPRLPRPLPIRPPPRFPRPVPVRP; Synthetic antimicrobial peptide) [compound 274],93
10,275 (RRRPPRLPRPLPIRPPPRLPRPFPVRP; Synthetic antimicrobial peptide) [compound 275],92
11,276 (RRRPPRLPRPLPIRPPPRLPRPVPVRP; Synthetic antimicrobial peptide) [compound 276],94
12,277 (RRRPPRLPRPLPIRPPPRVPRPFPIRP; Synthetic antimicrobial peptide) [compound 277],91
13,278 (RRRPPRLPRPLPIRPPPRVPRPLPFRP; Synthetic antimicrobial peptide) [compound 278],98
14,279 (RRRPPRLPRPLPIRPPPRVPRPLPLRP; Synthetic antimicrobial peptide) [compound 279],91
15,280 (RRRPPRLPRPLPLRPPPRFPRPFPVRP; Synthetic antimicrobial peptide) [compound 280],97
16,281 (RRRPPRLPRPLPLRPPPRFPRPVPLRP; Synthetic antimicrobial peptide) [compound 281],91
17,282 (RRRPPRLPRPLPLRPPPRLPHPIPFRP; Synthetic antimicrobial peptide) [compound 282],95
18,283 (RRRPPRLPRPLPVRPPPRFPRPVPFRP; Synthetic antimicrobial peptide) [compound 283],95
19,284 (RRRPPRLPRPLPVRPPPRFPRPVPVRP; Synthetic antimicrobial peptide) [compound 284],89
20,285 (RRRPPRLPRPLPVRPPPRIPRPFPVRP; Synthetic antimicrobial peptide) [compound 285],91
21,286 (RRRPPRLPRPLPVRPPPRIPRPLPLRP; Synthetic antimicrobial peptide) [compound 286],95
22,287 (RRRPPRLPRPLPVRPPPRLPRPIPIRP; Synthetic antimicrobial peptide) [compound 287],95

row,Substance,Growth inhibition (%)
1,288 (RRRPPRLPRPLPVRPPPRVPRPFPLRP; Synthetic antimicrobial peptide) [compound 288],96
2,289 (RRRPPRLPRPLPVRPPPRVPRPFPVRP; Synthetic antimicrobial peptide) [compound 289],95
3,290 (RRRPPRLPRPLPVRPPPRVPRPLPLRP; Synthetic antimicrobial peptide) [compound 290],94
4,291 (RRRPPRLPRPLPVRPPPRVPRPVPFRP; Synthetic antimicrobial peptide) [compound 291],90
5,292 (RRRPPRLPRPLPVRPPPRVPRPVPFRP; Synthetic antimicrobial peptide) [compound 292],93
6,293 (RRRPPRLPRPVPFRPPPRFPRPFPIRP; Synthetic antimicrobial peptide) [compound 293],93
7,294 (RRRPPRLPRPVPFRPPPRFPRPVPLRP; Synthetic antimicrobial peptide) [compound 294],95
8,295 (RRRPPRLPRPVPFRPPPRIPRPFPLRP; Synthetic antimicrobial peptide) [compound 295],59
9,296 (RRRPPRLPRPVPFRPPPRVPRPIPFRP; Synthetic antimicrobial peptide) [compound 296],88
10,297 (RRRPPRLPRPVPFRPPPRVPRPIPVRP; Synthetic antimicrobial peptide) [compound 297],90
11,298 (RRRPPRLPRPVPFRPPPRVPRPVPLRP; Synthetic antimicrobial peptide) [compound 298],92
12,299 (RRRPPRLPRPVPIRPPPRFPRPIPFRP; Synthetic antimicrobial peptide) [compound 299],96
13,300 (RRRPPRLPRPVPIRPPPRIPRPIPFRP; Synthetic antimicrobial peptide) [compound 300],92
14,301 (RRRPPRLPRPVPIRPPPRVPRPVPLRP; Synthetic antimicrobial peptide) [compound 301],92
15,302 (RRRPPRLPRPVPLRPPPRFPRPVPVRP; Synthetic antimicrobial peptide) [compound 302],82
16,303 (RRRPPRLPRPVPLRPPPRVPRPLPIRP; Synthetic antimicrobial peptide) [compound 303],91
17,304 (RRRPPRLPRPVPVRPPPRFPRPVPIRP; Synthetic antimicrobial peptide) [compound 304],90
18,305 (RRRPPRLPRPVPVRPPPRFPRPVPVRP; Synthetic antimicrobial peptide) [compound 305],90
19,306 (RRRPPRLPRPVPVRPPPRFPRPVPVRP; Synthetic antimicrobial peptide) [compound 306],90
20,307 (RRRPPRLPRPVPVRPPPRVPRPVPFRP; Synthetic antimicrobial peptide) [compound 307],92
21,308 (RRRPPRLPRPVPVRPPPRVPRPVPVRP; Synthetic antimicrobial peptide) [compound 308],96
22,309 (RRRPPRVPRPFPIRPPPRVPRPIPFRP; Synthetic antimicrobial peptide) [compound 309],76
